Experimental data: PMC11058275, “Targeted potent antimicrobial and antitumor oxygen-heterocyclic-based pyran analogues: synthesis and computational studies” (Scientific Reports, 2024)
Where two headings read alike, the source gives them in different places.

Experiments:
[1] = test system: Bacillus cereus (ATCC 10987); experiment: Agar diffusion antibacterial screening (inhibition zone); type: cell-based; settings: ATCC10987, B. cereus, 1 mg/mL, Mueller–Hinton agar, read-out: Diameter of inhibition zone
Experimental: (§1) The antibacterial activity of β-enamionitriles (4a-q) was screened using Mueller–Hinton agar medium for bacteria in an agar diffusion methodology. Ciprofloxacin (1 mg/mL) was the reference antibiotic drug used in the analysis of collections that included four gram-positive species of multi drug resistant pathogenic bacteria: Staphylococcus aureus (MRSA) (ATCC 6539), Staphylococcus aureus (ATCC 6538), Bacillus cereus (ATCC 10987), Bacillus subtilis (ATCC 6633), and two gram-negative species of multi drug resistant pathogenic bacteria Klebsiella pneumonia (ATCC 13883) and Escherichia coli (ATCC 8739). […] Using a 1 mg/mL concentration of compounds (4a-q), the minimum zone of inhibition (IZ, the area around the antimicrobial agent where bacterial growth is prevented) was established in mm ± standard deviation beyond the well diameter (6 mm). […] The synthetic compound's inhibitory effects on evaluation against these organisms are depicted in Fig. 9 and Table 1.
(§2) Compound 4a-q was screened for its in vitro antimicrobial activities against pathogenic bacteria species using the standard antibiotics Ampicillin, Gentamycin and Ketoconazole as reference drugs as reported previously. The minimum inhibitory concentration (MIC) was determined as previously reported. The antimicrobial activities were performed at the Regional Centre for Mycology & Biotechnology (RCMP), Al-Azhar University.

[2] = test system: Bacillus subtilis (ATCC 6633); experiment: as above; type: cell-based; settings: ATCC6633, B. subtilis, 1 mg/mL, Mueller–Hinton agar, read-out: Diameter of inhibition zone
Experimental: as §1, §2

[3] = test system: Escherichia coli (ATCC 8739); experiment: as above; type: cell-based; settings: ATCC8739, E. coli, 1 mg/mL, Mueller–Hinton agar, read-out: Diameter of inhibition zone
Experimental: as §1, §2

[4] = test system: Klebsiella pneumonia (ATCC 13883); experiment: as above; type: cell-based; settings: Klebsiella pneumoniae, ATCC13883, K. pneumonia, 1 mg/mL, Mueller–Hinton agar, read-out: Diameter of inhibition zone
Experimental: as §1, §2

[5] = test system: Staphylococcus aureus (ATCC 6538); experiment: as above; type: cell-based; settings: ATCC6538, S. aureus, 1 mg/mL, Mueller–Hinton agar, read-out: Diameter of inhibition zone
Experimental: as §1, §2

[6] = test system: Staphylococcus aureus (MRSA) (ATCC 6539); experiment: as above; type: cell-based; settings: read-out: Diameter of inhibition zone
Experimental: as §1, §2

MCF-7 (breast cancer) [7] = settings: values marked b, read-out: IC50 Cancerotoxicity MCF-7; cited from earlier work
[8] = test system: HCT-116 (human colon cancer); settings: values marked b, read-out: IC50 Cancerotoxicity HCT-116; cited from earlier work
[9] = test system: HepG-2 (hepatocellular carcinoma); settings: values marked b, read-out: IC50 Cancerotoxicity HepG-2; cited from earlier work
[10] = test system: HCT-116 (human colon cancer); experiment: MTT cytotoxicity assay; type: cell-based
From the text: (§3) The antiproliferative activity of the newly synthesized 1H-benzo[f]chromenes derivatives (4a-q) was examined in three human cancer cell lines: MCF-7 (breast cancer), HCT-116 (human colon cancer), and HepG-2 (hepatocellular carcinoma), as well as the two normal cell lines, HFL-1 (human foetal lung) and WI-38 (human diploid fibroblasts), using the 3-(4,5-dimethylthiazol-2-yl)-2,5-diphenyl tetrazolium bromide (MTT) colorimetric assay[56].
(§4) Compounds 4a-q was initially evaluated for in vitro antitumor activity against three different human cell lines: MCF-7, HCT-116 and HepG-2. In-vitro cytotoxicity evaluation was performed at the Regional Center for Mycology & Biotechnology (RCMP), Al-Azhar University under different concentrations (50, 25, 12.5, 6.25, 3.125, 1.56 and 0 µg/mL); vinblastine and doxorubicin are used as reference cytotoxic compounds.

[11] = test system: HepG-2 (hepatocellular carcinoma); experiment: MTT cytotoxicity assay; type: cell-based; settings: Homo sapiens
From the text: as §3, §4

[12] = test system: HFL-1 (human foetal lung); experiment: MTT cytotoxicity assay, normal cells; type: cell-based; settings: read-out: IC50 Normotoxicity HFL-1
From the text: as §3, §4

[13] = test system: WI-38 (human diploid fibroblasts); experiment: MTT cytotoxicity assay, normal cells; type: cell-based; settings: read-out: IC50 Normotoxicity WI-38
From the text: as §3, §4

MCF-7 (breast cancer) [14] = experiment: MTT cytotoxicity assay; settings: Homo sapiens
From the text: as §3, §4

[15] = MTT, 24-h incubation, mean ± standard error, read-out: IC50 Cancerotoxicity HCT-116
[16] = HepG2, MTT, 24-h incubation, mean ± standard error, read-out: IC50 Cancerotoxicity HepG-2
[17] = HFL1, HFL-1 normal cells, MTT, 24-h incubation, mean ± standard error
[18] = WI-38 normal cells, MTT, 24-h incubation, mean ± standard error
[19] = MCF7, 24 h, read-out: IC50 Cancerotoxicity MCF-7
[20] = given in µg/mL, read-out: IC50 HCT-116
[21] = HepG2, given in µg/mL, read-out: IC50 HepG-2

Row | SMILES | zone of inhibition at 1000 µg/mL [1] [mm] | zone of inhibition at 1000 µg/mL [2] [mm] | zone of inhibition at 1000 µg/mL [3] [mm] | zone of inhibition at 1000 µg/mL [4] [mm] | zone of inhibition at 1000 µg/mL [5] [mm] | zone of inhibition at 1000 µg/mL [6] [mm] | melting point [°C] | IC50 (MCF-7 (breast cancer) [7]) [µM] | IC50 [8] [µM] | IC50 [9] [µM] | IC50 [10, 15] [µM] | IC50 [11, 16] [µM] | IC50 [12, 17] [µM] | IC50 [13, 18] [µM] | IC50 (MCF-7 (breast cancer) [14]; [19]) [µM] | IC50 [10, 20] [µg/mL] | IC50 [11, 21] [µg/mL] | IC50 (MCF-7 (breast cancer) [14]; MCF7, read-out: IC50 MCF-7) [µg/mL] | IC50 ([12]; HFL1, 24 h) [µM] | IC50 ([13]; WI-38, 24 h) [µM]
1 | COc1ccc2c3c(ccc2c1)OC(N)=C(C#N)C3c1ccc(F)cc1 (centres unmarked) [Compound 4a, 3-Amino-1-(4-fluorophenyl)-8-methoxy-1H-benzo[f]chromene-2-carbonitrile] | 13 | 0 | 11 | 14 | 0 | 14 | 255 to 256 | 12.7 ± 0.05 | 14.2 ± 0.01 | 1.5 ± 0.01 | – | – | – | – | – | – | – | – | – | –
2 | COc1ccc2c3c(ccc2c1)OC(N)=C(C#N)C3c1ccccc1Cl (centres unmarked) [Compound 4b, 3-Amino-1-(2-chlorophenyl)-8-methoxy-1H-benzo[f]chromene-2-carbonitrile] | 14 | 0 | 12 | 13 | 0 | 13 | 265 to 266 | – | – | – | 8.6 ± 0.25 | 6.1 ± 0.2 | 198.6 ± 0.1 | 171 ± 0.2 | 3.9 ± 0.18 | – | – | – | – | –
3 | COc1ccc2c3c(ccc2c1)OC(N)=C(C#N)C3c1cccc(Cl)c1 (centres unmarked) [Compound 4c, 3-Amino-1-(3-chlorophenyl)-8-methoxy-1H-benzo[f]chromene-2-carbonitrile] | 17 | 0 | 12 | 13 | 0 | 15 | 216 to 217 | – | – | – | 5.5 ± 0.35 | 3.3 ± 0.5 | 187.6 ± 0.2 | 214.1 ± 0.1 | 3.6 ± 0.14 | – | – | – | – | –
4 | COc1ccc2c3c(ccc2c1)OC(N)=C(C#N)C3c1cccc(Cl)c1Cl (centres unmarked) [Compound 4i, 3-Amino-1-(2,3-dichlorophenyl)-8-methoxy-1H-benzo[f]chromene-2-carbonitrile] | 8 | 0 | 0 | 14 | 0 | 13 | 256 to 257 | – | – | – | 3.5 ± 0.15 | 2.8 ± 0.17 | 154.5 ± 0.1 | 160.1 ± 0.2 | 2.3 ± 0.01 | 1.4 ± 0.15 | 11.1 ± 0.17 | 0.9 ± 0.01 | – | –
5 | COc1ccc2c3c(ccc2c1)OC(N)=C(C#N)C3c1ccc(Cl)cc1Cl (centres unmarked) [Compound 4j, 3-Amino-1-(2,4-dichlorophenyl)-8-methoxy-1H-benzo[f]chromene-2-carbonitrile] | 8 | 0 | 12 | 14 | 0 | 13 | 285 to 286 | – | – | – | 5.8 ± 0.16 | 14.1 ± 0.18 | 180.8 ± 0.3 | 177.8 ± 0.3 | 2 ± 0.02 | – | – | – | – | –
6 | COc1ccc2c3c(ccc2c1)OC(N)=C(C#N)C3c1ccc(Cl)c(Cl)c1 (centres unmarked) [Compound 4m, 3-Amino-1-(3,4-dichlorophenyl)-8-methoxy-1H-benzo[f]chromene-2-carbonitrile] | 13 | 0 | 10 | 13 | 0 | 14 | 241 to 242 | – | – | – | 2.3 ± 0.97 | 1.8 ± 0.06 | 181 ± 0.1 | 175.5 ± 0.2 | 1.3 ± 0.21 | 0.9 ± 0.97 | 0.7 ± 0.06 | 0.5 ± 0.21 | – | –
7 | COc1ccc2c3c(ccc2c1)OC(N)=C(C#N)C3c1cc(Br)cc(Br)c1OC (centres unmarked) [Compound 4n, 3-amino-1-(3,5-dibromo-2-methoxyphenyl)-8-methoxy-1H-benzo[f]chromene-2-carbonitrile] | 13 | 0 | 0 | 11 | 0 | 14 | 241 to 242 | – | – | – | 1.2 ± 0.06 | 5.6 ± 0.21 | 139.5 ± 0.1 | 135.4 ± 0.3 | 1.4 ± 0.05 | 0.6 ± 0.06 | 2.9 ± 0.21 | 0.7 ± 0.05 | – | –
8 | COc1ccc2c3c(ccc2c1)OC(N)=C(C#N)C3c1cc(OC)c(OC)c(OC)c1 (centres unmarked) [Compound 4p, 3-amino-1-(3,4,5-trimethoxyphenyl)-8-methoxy-1H-benzo[f]chromene-2-carbonitrile] | 15 | 0 | 11 | 12 | 11 | 13 | 258 to 259 | – | – | – | 91.4 ± 0.01 | 106.5 ± 0.1 | – | – | 114.4 ± 0.03 | – | – | – | – | –
9 | COc1ccc2c3c(ccc2c1)OC(N)=C(C#N)C3c1cc(Cl)cc(Cl)c1Cl (centres unmarked) [Compound 4q, 3-amino-1-(2,3,5-trichlorophenyl)-8-methoxy-1H-benzo[f]chromene-2-carbonitrile] | 13 | 10 | 12 | 13 | 10 | 13 | 259 to 260 | – | – | – | 107 ± 1.6 | 76.5 ± 0.9 | – | – | 110.4 ± 0.1 | – | – | – | – | –
10 | C#Cc1cccc(Nc2ncnc3cc(OCCOC)c(OCCOC)cc23)c1 [Erlotinib, N-(3-ethynylphenyl)-6,7-bis(2-methoxyethoxy)-4-quinazolinamine, reference compound] | – | – | – | – | – | – | – | – | – | – | – | – | – | – | – | – | – | – | 14 ± 1.2 | 28.5 ± 0.2
